In US20230391809A1, “HYDROPHOBIC COMPOSITIONS INCLUDING A HYDROPHILIC ACTIVE INGREDIENT AND METHODS RELATING THERETO” (BioMimetix JV, LLC, priority 2022, published 2023):
Like-named read-outs stand apart in the source and are kept apart here. Marks after values point to notes of the source that are not given here.

Protocol: The vial was placed in a first 3 mL low density polyethylene (LDPE) bag with a 1/6 desiccant and the bag was twist tie closed. The first bag was placed in a second 3 mL LDPE bag, twist tie closed, and placed in a high density polyethylene (HDPE) container.

For CC[n+]1ccccc1-c1c2nc(c(-c3cccc[n+]3CC)c3ccc([n-]3)c(-c3cccc[n+]3CC)c3nc(c(-c4cccc[n+]4CC)c4ccc1[n-]4)C=C3)C=C2.[Cl-].[Cl-].[Cl-].[Cl-].[Cl-].[Mn+3] [BMX-010], the Appearance (25° C./60% RH, 3 Month) was “Brown Solid”, the “Assay by UPLC (Wt % of an anhydrous basis, sum of Atropisomers)” value (25° C./60% RH, 3 Month) was 100.3% and the “PSD D10” value (25° C./60% RH, 3 Month) was “D10: 0.60 μm”. The “PSD D50” value (25° C./60% RH, 3 Month) was “D50: 1.1 μm”, the “PSD D90” value (25° C./60% RH, 3 Month) was “D90: 2.0 μm” and the “Total Impurities by HPLC (Area %)” value (25° C./60% RH, 3 Month) was 0.81%. For the same compound, the “Water Content by Karl Fischer” value (25° C./60% RH, 3 Month) was 7.3%, the Appearance (25° C./60% RH, 6 Month) was “Brown Solid” and the “Assay by UPLC (Wt % of an anhydrous basis, sum of Atropisomers)” value (25° C./60% RH, 6 Month) was 99.9%. The “PSD D10” value (25° C./60% RH, 6 Month) was “D10: 0.62 μm*”, the “PSD D50” value (25° C./60% RH, 6 Month) was “D50: 1.2 μm*” and the “PSD D90” value (25° C./60% RH, 6 Month) was “D90: 2.0 μm*”. For the same compound, the “Total Impurities by HPLC (Area %)” value (25° C./60% RH, 6 Month) was 0.88%, the “Water Content by Karl Fischer” value (25° C./60% RH, 6 Month) was 7.7% and the XRPD (25° C./60% RH, 6 Month) was “Amorphous”. For the same compound, the Appearance (40° C./75% RH, 3 Month) was “Brown Solid”, the “Assay by UPLC (Wt % of an anhydrous basis, sum of Atropisomers)” value (40° C./75% RH, 3 Month) was 100.2% and the “PSD D10” value (40° C./75% RH, 3 Month) was “D10: 0.60 μm”. For the same compound, the “PSD D50” value (40° C./75% RH, 3 Month) was “D50: 1.2 μm”, the “PSD D90” value (40° C./75% RH, 3 Month) was “D90: 2.1 μm” and the “Total Impurities by HPLC (Area %)” value (40° C./75% RH, 3 Month) was 1.3%. For the same compound, the “Water Content by Karl Fischer” value (40° C./75% RH, 3 Month) was 7.5%, the Appearance (40° C./75% RH, 6 Month) was “Brown Solid” and the “Assay by UPLC (Wt % of an anhydrous basis, sum of Atropisomers)” value (40° C./75% RH, 6 Month) was 97.9%**. For the same compound, the “PSD D10” value (40° C./75% RH, 6 Month) was “D10: 0.61 μm*”, the “PSD D50” value (40° C./75% RH, 6 Month) was “D50: 1.2 μm*” and the “PSD D90” value (40° C./75% RH, 6 Month) was “D90: 2.1 μm*”. The “Total Impurities by HPLC (Area %)” value (40° C./75% RH, 6 Month) was 1.6%**, the “Water Content by Karl Fischer” value (40° C./75% RH, 6 Month) was 8.5% and the XRPD (40° C./75% RH, 6 Month) was “Amorphous”. For the same compound, the Appearance (T = 0) was “Brown Solid”, the “Assay by UPLC (Wt % of an anhydrous basis, sum of Atropisomers)” value (T = 0) was 97.5% and the “PSD D10” value (T = 0) was “D10: 0.61 μm”. For the same compound, the “PSD D50” value (T = 0) was “D50: 1.2 μm”, the “PSD D90” value (T = 0) was “D90: 2.0 μm” and the “Total Impurities by HPLC (Area %)” value (T = 0) was 0.67%. For the same compound, the “Water Content by Karl Fischer” value (T = 0) was 6.9%, the XRPD (T = 0) was “Amorphous” and the Appearance (−20° C., 3 Month) was “Brown Solid”. The “Assay by UPLC (Wt % of an anhydrous basis, sum of Atropisomers)” value (−20° C., 3 Month) was 101.4%, the “PSD D10” value (−20° C., 3 Month) was “D10: 0.59 μm” and the “PSD D50” value (−20° C., 3 Month) was “D50: 1.1 μm”. The “PSD D90” value (−20° C., 3 Month) was “D90: 2.0 μm”, the “Total Impurities by HPLC (Area %)” value (−20° C., 3 Month) was 0.63% and the “Water Content by Karl Fischer” value (−20° C., 3 Month) was 7.0%. The Appearance (−20° C., 6 Month) was “Brown Solid”, the “Assay by UPLC (Wt % of an anhydrous basis, sum of Atropisomers)” value (−20° C., 6 Month) was 100.7% and the “PSD D10” value (−20° C., 6 Month) was “D10: 0.59 μm*”. For the same compound, the “PSD D50” value (−20° C., 6 Month) was “D50: 1.1 μm*”, the “PSD D90” value (−20° C., 6 Month) was “D90: 1.9 μm*” and the “Total Impurities by HPLC (Area %)” value (−20° C., 6 Month) was 0.63%. For the same compound, the “Water Content by Karl Fischer” value (−20° C., 6 Month) was 7.4% and the XRPD (−20° C., 6 Month) was “Amorphous”.
